# Data taken from paper PMC8512054 (Molecules, 2021).
# Target: T1, MAO-B (Homo sapiens, UniProt P27338)
# T1 sequence (P27338 1-520): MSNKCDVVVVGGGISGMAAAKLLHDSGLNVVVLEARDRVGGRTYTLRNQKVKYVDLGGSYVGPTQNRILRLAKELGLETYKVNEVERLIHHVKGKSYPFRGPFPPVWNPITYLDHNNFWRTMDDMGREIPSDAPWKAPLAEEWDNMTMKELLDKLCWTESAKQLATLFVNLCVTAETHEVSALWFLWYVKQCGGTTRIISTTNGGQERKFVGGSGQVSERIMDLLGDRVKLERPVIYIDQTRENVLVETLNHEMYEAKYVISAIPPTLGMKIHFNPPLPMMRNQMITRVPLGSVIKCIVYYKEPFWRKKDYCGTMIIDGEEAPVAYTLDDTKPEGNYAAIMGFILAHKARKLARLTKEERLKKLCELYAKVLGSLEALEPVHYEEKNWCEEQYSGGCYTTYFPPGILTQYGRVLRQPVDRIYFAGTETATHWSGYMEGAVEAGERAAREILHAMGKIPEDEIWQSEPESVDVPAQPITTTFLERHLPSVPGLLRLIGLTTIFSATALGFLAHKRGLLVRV
# Test: MAO-B inhibitory assay (recombinant MAO-B, benzylamine substrate)
# Details: not given
row,SMILES,IC50
1,"O=C(C=Cc1ccc([N+](=O)[O-])cc1)Nc1ccccc1 [NEA1, 3-(4-Nitrophenyl)-N-phenylacrylamide]",0.016 ± 0.001 µM
2,"O=C(C=Cc1ccc([N+](=O)[O-])cc1)Nc1ccc(Cl)cc1 [NEA2, N-(4-Chlorophenyl)-3-(4-nitrophenyl)acrylamide]",5.28 ± 0.09 µM
3,"O=C(C=Cc1ccc([N+](=O)[O-])cc1)Nc1ccc(F)cc1 [NEA3, N-(4-Fluorophenyl)-3-(4-nitrophenyl)acrylamide]",0.0092 ± 0.0003 µM
4,"O=C(C=Cc1ccc([N+](=O)[O-])cc1)NC1CCCCC1 [NEA4, N-Cyclohexyl-3-(4-nitrophenyl)acrylamide]",0.074 ± 0.02 µM

# Same assay, conditions: from the IC50 values of MAO-A and MAO-B
row,SMILES,Selectivity index (SI) for MAO-B as compared with MAO-A
1,"O=C(C=Cc1ccc([N+](=O)[O-])cc1)Nc1ccccc1 [NEA1, 3-(4-Nitrophenyl)-N-phenylacrylamide]",>2500.0
2,"O=C(C=Cc1ccc([N+](=O)[O-])cc1)Nc1ccc(Cl)cc1 [NEA2, N-(4-Chlorophenyl)-3-(4-nitrophenyl)acrylamide]",>7.58
3,"O=C(C=Cc1ccc([N+](=O)[O-])cc1)Nc1ccc(F)cc1 [NEA3, N-(4-Fluorophenyl)-3-(4-nitrophenyl)acrylamide]",1652.2
4,"O=C(C=Cc1ccc([N+](=O)[O-])cc1)NC1CCCCC1 [NEA4, N-Cyclohexyl-3-(4-nitrophenyl)acrylamide]",>540.5

# Same assay, conditions: read-out: % Residual Activity (at 10 µM) MAO-B
row,SMILES,remaining activity at 10 µM
1,"O=C(C=Cc1ccc([N+](=O)[O-])cc1)Nc1ccccc1 [NEA1, 3-(4-Nitrophenyl)-N-phenylacrylamide]",3.88 ± 0.6%
2,"O=C(C=Cc1ccc([N+](=O)[O-])cc1)Nc1ccc(Cl)cc1 [NEA2, N-(4-Chlorophenyl)-3-(4-nitrophenyl)acrylamide]",35.8 ± 6.2%
3,"O=C(C=Cc1ccc([N+](=O)[O-])cc1)Nc1ccc(F)cc1 [NEA3, N-(4-Fluorophenyl)-3-(4-nitrophenyl)acrylamide]",3.04 ± 0.5%
4,"O=C(C=Cc1ccc([N+](=O)[O-])cc1)NC1CCCCC1 [NEA4, N-Cyclohexyl-3-(4-nitrophenyl)acrylamide]",9.52 ± 3.5%

# System: not listed separately
# Test: BBB permeation by PAMPA method
# Type: in vitro ADME
# Details: class from experimental Pe
# Excerpt: The CNS bioavailability of the molecules was further ascertained by the PAMPA method.
row,SMILES,Prediction (BBB permeation)
1,"O=C(C=Cc1ccc([N+](=O)[O-])cc1)Nc1ccccc1 [NEA1, 3-(4-Nitrophenyl)-N-phenylacrylamide]",CNS+ (CNS+ (high BBB permeation predicted: Pe (10^−6 cm/s) > 4.00))
2,"O=C(C=Cc1ccc([N+](=O)[O-])cc1)Nc1ccc(Cl)cc1 [NEA2, N-(4-Chlorophenyl)-3-(4-nitrophenyl)acrylamide]",CNS+ (CNS+ (high BBB permeation predicted: Pe (10^−6 cm/s) > 4.00))
3,"O=C(C=Cc1ccc([N+](=O)[O-])cc1)Nc1ccc(F)cc1 [NEA3, N-(4-Fluorophenyl)-3-(4-nitrophenyl)acrylamide]",CNS+ (CNS+ (high BBB permeation predicted: Pe (10^−6 cm/s) > 4.00))
4,"O=C(C=Cc1ccc([N+](=O)[O-])cc1)NC1CCCCC1 [NEA4, N-Cyclohexyl-3-(4-nitrophenyl)acrylamide]",CNS+ (CNS+ (high BBB permeation predicted: Pe (10^−6 cm/s) > 4.00))

# Same assay, conditions: read-out: Experimental Pe
row,SMILES,Effective permeability (Pe)
1,"O=C(C=Cc1ccc([N+](=O)[O-])cc1)Nc1ccccc1 [NEA1, 3-(4-Nitrophenyl)-N-phenylacrylamide]",14.4 ± 0.35 ×10⁻⁶ cm/s
2,"O=C(C=Cc1ccc([N+](=O)[O-])cc1)Nc1ccc(Cl)cc1 [NEA2, N-(4-Chlorophenyl)-3-(4-nitrophenyl)acrylamide]",13.5 ± 0.26 ×10⁻⁶ cm/s
3,"O=C(C=Cc1ccc([N+](=O)[O-])cc1)Nc1ccc(F)cc1 [NEA3, N-(4-Fluorophenyl)-3-(4-nitrophenyl)acrylamide]",16.4 ± 0.17 ×10⁻⁶ cm/s
4,"O=C(C=Cc1ccc([N+](=O)[O-])cc1)NC1CCCCC1 [NEA4, N-Cyclohexyl-3-(4-nitrophenyl)acrylamide]",15.5 ± 0.62 ×10⁻⁶ cm/s

# Target: BACE1 (Homo sapiens, UniProt P56817)
# Sequence (P56817 46-501): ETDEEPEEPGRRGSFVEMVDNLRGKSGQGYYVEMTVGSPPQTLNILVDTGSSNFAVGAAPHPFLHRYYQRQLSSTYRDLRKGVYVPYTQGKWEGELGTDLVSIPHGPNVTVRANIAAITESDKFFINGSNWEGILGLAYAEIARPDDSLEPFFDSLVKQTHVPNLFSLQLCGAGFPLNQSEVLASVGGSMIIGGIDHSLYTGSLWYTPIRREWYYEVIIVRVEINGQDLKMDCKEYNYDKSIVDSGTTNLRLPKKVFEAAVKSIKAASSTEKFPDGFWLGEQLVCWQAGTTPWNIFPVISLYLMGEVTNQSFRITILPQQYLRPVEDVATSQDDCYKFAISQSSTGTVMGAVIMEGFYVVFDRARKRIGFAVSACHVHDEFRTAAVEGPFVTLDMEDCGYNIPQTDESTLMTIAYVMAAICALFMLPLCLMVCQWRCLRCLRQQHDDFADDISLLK
# Test: BACE1 activity assay kit (β-secretase, CS0010), fluorescence
# Details: not given
row,SMILES,IC50
1,"O=C(C=Cc1ccc([N+](=O)[O-])cc1)Nc1ccccc1 [NEA1, 3-(4-Nitrophenyl)-N-phenylacrylamide]",8.21 ± 0.03 µM
2,"O=C(C=Cc1ccc([N+](=O)[O-])cc1)Nc1ccc(F)cc1 [NEA3, N-(4-Fluorophenyl)-3-(4-nitrophenyl)acrylamide]",8.02 ± 0.13 µM

# Same assay, conditions: read-out: % Residual Activity (at 10 µM) BACE1
row,SMILES,remaining activity at 10 µM
1,"O=C(C=Cc1ccc([N+](=O)[O-])cc1)Nc1ccccc1 [NEA1, 3-(4-Nitrophenyl)-N-phenylacrylamide]",34.9 ± 0.5%
2,"O=C(C=Cc1ccc([N+](=O)[O-])cc1)Nc1ccc(Cl)cc1 [NEA2, N-(4-Chlorophenyl)-3-(4-nitrophenyl)acrylamide]",88.1 ± 0.3%
3,"O=C(C=Cc1ccc([N+](=O)[O-])cc1)Nc1ccc(F)cc1 [NEA3, N-(4-Fluorophenyl)-3-(4-nitrophenyl)acrylamide]",34.4 ± 0.2%
4,"O=C(C=Cc1ccc([N+](=O)[O-])cc1)NC1CCCCC1 [NEA4, N-Cyclohexyl-3-(4-nitrophenyl)acrylamide]",61.2 ± 3%

# Target: T1, MAO-B
# Test: MAO-B enzyme-inhibition kinetics (Lineweaver–Burk and secondary plots)
# Type: biochemical
# Parameters: purchased Sigma-Aldrich
# Details: Lineweaver–Burk plots
# Excerpt: The obtained results are represented in Figure 1.
# Figure 1 Lineweaver–Burk plots for MAO-B inhibition by NEA1 and NEA3 (A,C), and their respective secondary plots (B,D) of the slopes vs. inhibitor concentrations.
row,SMILES,Mode of MAO-B inhibition
1,"O=C(C=Cc1ccc([N+](=O)[O-])cc1)Nc1ccccc1 [NEA1, 3-(4-Nitrophenyl)-N-phenylacrylamide]",competitive
2,"O=C(C=Cc1ccc([N+](=O)[O-])cc1)Nc1ccc(F)cc1 [NEA3, N-(4-Fluorophenyl)-3-(4-nitrophenyl)acrylamide]",competitive

# Same assay, conditions: from secondary plot of Lineweaver–Burk slopes
row,SMILES,Ki
1,"O=C(C=Cc1ccc([N+](=O)[O-])cc1)Nc1ccccc1 [NEA1, 3-(4-Nitrophenyl)-N-phenylacrylamide]",0.013 ± 0.005 µM
2,"O=C(C=Cc1ccc([N+](=O)[O-])cc1)Nc1ccc(F)cc1 [NEA3, N-(4-Fluorophenyl)-3-(4-nitrophenyl)acrylamide]",0.0049 ± 0.0002 µM

# Target: T1, MAO-B
# Test: MAO-B inhibitor-reversibility analysis by dialysis
# Type: biochemical
# Parameters: purchased Sigma-Aldrich
# Details: dialysis method
# Description: The reversibility of MAO-B inhibition by NEA1 and NEA3 was evaluated using a standardized dialysis method. […] The activities in dialyzed (AD) and undialyzed (AU) samples were compared and reversibility patterns were determined.
# Dialysis was performed for 6 h with a buffer change after 3 h with duplicate experiments.
row,SMILES,Reversibility of MAO-B inhibition
1,"O=C(C=Cc1ccc([N+](=O)[O-])cc1)Nc1ccccc1 [NEA1, 3-(4-Nitrophenyl)-N-phenylacrylamide]",reversible
2,"O=C(C=Cc1ccc([N+](=O)[O-])cc1)Nc1ccc(F)cc1 [NEA3, N-(4-Fluorophenyl)-3-(4-nitrophenyl)acrylamide]",reversible

# Same assay, conditions: ~2 × IC50 (NEA1 0.032, NEA3 0.020, lazabemide 0.22, pargyline 0.28 μM); dialysis 6 h
row,SMILES,"Relative MAO-B activity, dialyzed (AD)"
1,"O=C(C=Cc1ccc([N+](=O)[O-])cc1)Nc1ccccc1 [NEA1, 3-(4-Nitrophenyl)-N-phenylacrylamide]",79.5%
2,"O=C(C=Cc1ccc([N+](=O)[O-])cc1)Nc1ccc(F)cc1 [NEA3, N-(4-Fluorophenyl)-3-(4-nitrophenyl)acrylamide]",79.5%

# Same assay, conditions: ~2 × IC50 (NEA1 0.032, NEA3 0.020, lazabemide 0.22, pargyline 0.28 μM); preincubated 30 min
row,SMILES,"Relative MAO-B activity, undialyzed (AU)"
1,"O=C(C=Cc1ccc([N+](=O)[O-])cc1)Nc1ccccc1 [NEA1, 3-(4-Nitrophenyl)-N-phenylacrylamide]",29.2%
2,"O=C(C=Cc1ccc([N+](=O)[O-])cc1)Nc1ccc(F)cc1 [NEA3, N-(4-Fluorophenyl)-3-(4-nitrophenyl)acrylamide]",32.8%

# System: not given
# Test: not given
# Details: not given
row,SMILES,melting point
1,"O=C(C=Cc1ccc([N+](=O)[O-])cc1)Nc1ccc(Cl)cc1 [NEA2, N-(4-Chlorophenyl)-3-(4-nitrophenyl)acrylamide]",224 to 226 °C
2,"O=C(C=Cc1ccc([N+](=O)[O-])cc1)Nc1ccc(F)cc1 [NEA3, N-(4-Fluorophenyl)-3-(4-nitrophenyl)acrylamide]",208 to 210 °C
3,"O=C(C=Cc1ccc([N+](=O)[O-])cc1)NC1CCCCC1 [NEA4, N-Cyclohexyl-3-(4-nitrophenyl)acrylamide]",166 to 168 °C

# Target: T2, recombinant MAO-A (Homo sapiens, UniProt P21397)
# T2 sequence (P21397 1-527): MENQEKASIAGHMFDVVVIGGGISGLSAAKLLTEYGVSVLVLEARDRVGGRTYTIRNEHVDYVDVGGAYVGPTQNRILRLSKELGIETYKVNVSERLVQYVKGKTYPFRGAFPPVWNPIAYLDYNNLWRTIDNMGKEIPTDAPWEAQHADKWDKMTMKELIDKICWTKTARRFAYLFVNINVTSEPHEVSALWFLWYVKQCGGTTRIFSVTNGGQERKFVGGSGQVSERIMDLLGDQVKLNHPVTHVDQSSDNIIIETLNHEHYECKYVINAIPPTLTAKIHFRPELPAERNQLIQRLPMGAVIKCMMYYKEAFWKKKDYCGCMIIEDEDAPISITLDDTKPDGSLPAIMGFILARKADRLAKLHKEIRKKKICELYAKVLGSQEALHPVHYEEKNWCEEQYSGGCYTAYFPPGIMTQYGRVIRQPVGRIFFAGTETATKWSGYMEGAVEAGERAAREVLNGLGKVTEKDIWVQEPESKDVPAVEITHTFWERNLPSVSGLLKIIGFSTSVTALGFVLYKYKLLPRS
# Test: MAO-A inhibitory assay (recombinant MAO-A, kynuramine substrate)
# Details: not given
row,SMILES,IC50
1,"O=C(C=Cc1ccc([N+](=O)[O-])cc1)Nc1ccccc1 [NEA1, 3-(4-Nitrophenyl)-N-phenylacrylamide]",> 40 µM
2,"O=C(C=Cc1ccc([N+](=O)[O-])cc1)Nc1ccc(Cl)cc1 [NEA2, N-(4-Chlorophenyl)-3-(4-nitrophenyl)acrylamide]",> 40 µM
3,"O=C(C=Cc1ccc([N+](=O)[O-])cc1)Nc1ccc(F)cc1 [NEA3, N-(4-Fluorophenyl)-3-(4-nitrophenyl)acrylamide]",15.2 ± 0.6 µM
4,"O=C(C=Cc1ccc([N+](=O)[O-])cc1)NC1CCCCC1 [NEA4, N-Cyclohexyl-3-(4-nitrophenyl)acrylamide]",> 40 µM

# Same assay, conditions: read-out: % Residual Activity (at 10 µM) MAO-A
row,SMILES,remaining activity at 10 µM
1,"O=C(C=Cc1ccc([N+](=O)[O-])cc1)Nc1ccccc1 [NEA1, 3-(4-Nitrophenyl)-N-phenylacrylamide]",91.9 ± 5.9%
2,"O=C(C=Cc1ccc([N+](=O)[O-])cc1)Nc1ccc(Cl)cc1 [NEA2, N-(4-Chlorophenyl)-3-(4-nitrophenyl)acrylamide]",95 ± 0.5%
3,"O=C(C=Cc1ccc([N+](=O)[O-])cc1)Nc1ccc(F)cc1 [NEA3, N-(4-Fluorophenyl)-3-(4-nitrophenyl)acrylamide]",61.9 ± 0.4%
4,"O=C(C=Cc1ccc([N+](=O)[O-])cc1)NC1CCCCC1 [NEA4, N-Cyclohexyl-3-(4-nitrophenyl)acrylamide]",85.6 ± 1.7%
